Patent US20240277798A1, “CYCLOSPORINE COMPOSITIONS AND METHODS OF USE” (Bacainn Biotherapeutics, Ltd., priority 2021, published 2024)
Values joined by “and” are separate entries in the source; they are usually repeats but may differ in a detail not shown here. Equal entries are not always repeated.

Columns and labels:
[1] = Rat PK, plasma concentrations after oral dosing; format: in vivo, Sprague-Dawley rats
human neutrophils = test: PMN transmigration assay (Salmonella typhimurium-infected T84 monolayer, HXA3/MRP2-driven neutrophil migration, MPO readout); format: cell-based
Description: PMN transmigration assay. T84 colorectal cancer cells were grown to confluence on the bottom side of 12 well polycarbonate membrane inserts of a 24 well Transwell® plate. The confluent growth of these epithelial cells results in physiologically-relevant apical (luminal) and basolateral surfaces in the transwells. […] The monolayer was then infected on the apical surface with Salmonella typhimurium for 2 hours to induce hepoxilin A3 (HXA3) efflux through the MRP2 membrane protein and into the apical chamber. […] Freshly isolated and prepared human neutrophils were then added to the basolateral side and allowed to transmigrate through the monolayer for 2 hours. The number of neutrophils migrated to the apical chamber (due to the HXA3 gradient) was then assayed by determination of myeloperoxidase activity (a neutrophil biomarker). Inhibition of transmigration is indicated by lower MPO activity in the apical chamber.

[2] = Amount excreted in feces after oral dosing in rats; format: in vivo, Sprague-Dawley rats; conditions: rat, individual animals
[3] = Feces stability (rat feces homogenate); format: in vitro ADME, Sprague-Dawley rat; conditions: 10 μM, 37° C., 24 hours, predicted
Description: Feces stability. Immediately prior to the study, male Sprague-Dawley rat feces were collected overnight over a mix of dry and wet ice. Feces were then homogenized in phosphate buffer at pH 6.5 and filtered to remove particles. BT090 ([…]) was incubated in duplicate at 37° C. for a total of 24 hours in the freshly prepared rat feces homogenate. At selected time points (0.5, 2, 6 and 24 hours), a 25 μL aliquot was taken from the incubation mixtures and quenched with 225 μL of acetonitrile containing the internal standards (IS). Samples were then centrifuged to pellet the precipitated proteins and the supernatants were diluted 5-fold. The 0 hour samples were prepared in pre-quenched feces homogenate towards the end of the incubation period. All quenched samples were then submitted to bioanalysis for LC-MS/MS quantification.
(§1) Bioanalysis. BT090 samples were analyzed by LC-MS/MS using a Thermo Accela UPLC and a Thermo Q-Exactive mass spectrometer. The [M+H]+ adducts of the compounds and internal standards were monitored using positive mode electrospray ionization in exact mass mode. […]
Feces stability. […] All quenched samples are then submitted to bioanalysis for LC-MS/MS quantification.
(§2) Bioanalysis. […] The [M+H]+ adducts of the compounds and internal standards are monitored using positive mode electrospray ionization in exact mass mode. […]

SGF FeSSIF stability = format: in vitro ADME; conditions: 10 μM, 37° C., 6 hours, predicted
Description: SGF FeSSIF Stability Procedure. BT090 (10 μM) was incubated in duplicate at 37° C. for a total of 6 hours in simulated gastric fluid (SGF) (Ricca, Arlington, TX) and Fed State Simulated Intestinal Fluid (FeSSIF) (Biorelevant, London, UK). The reactions were initiated by spiking the test articles (1 mM water stock solutions) in their respective buffers. At selected time points (0, 0.5, 1, 2, 4, and 6 hours), a 50 μL aliquot was taken from the incubation mixtures and frozen at −80° C. At the end of the incubation period, 200 μL of 50:50 acetonitrile:water containing the internal standards (IS) were added to every tube and vortexed thoroughly. The 0 hour samples were prepared in pre-quenched SGF or FeSSIF. All quenched samples were then submitted to bioanalysis for LC-MS/MS quantification.
as §1
SGF FeSSIF Stability Procedure. […] All quenched samples are then submitted to bioanalysis for LC-MS/MS quantification.
as §2

[4] = BT070 10 mg/kg orally, rat, individual animals, 10 mg/kg
[5] = BT070 10 mg/kg orally, rat, mean
[6] = BT070 10 mg/kg orally, 0-24 h, 10 mg/kg

With `CC[C@@H]1NC(=O)[C@H]([C@H](O)[C@H](C)CCCCCC(=O)O)N(C)C(=O)[C@H](C(C)C)N(C)C(=O)[C@H](CC(C)C)N(C)C(=O)[C@H](CC(C)C)N(C)C(=O)[C@@H](C)NC(=O)[C@H](C)NC(=O)[C@H](CC(C)C)N(C)C(=O)[C@H](C(C)C)NC(=O)[C@H](CC(C)C)N(C)C(=O)CN(C)C1=O` [BT070] the plasma concentration ([1]; BT070 10 mg/kg orally, rat, 0.5 h, individual animals, 10 mg/kg) was 7472.8 ng/mL and 746.7 ng/mL and 2546.3 ng/mL, the Mean plasma concentration ([1]; BT070 10 mg/kg orally, rat, 0.5 h, mean) was 3.5886 µg/mL and the plasma concentration ([1]; BT070 10 mg/kg orally, rat, 1 h, individual animals, 10 mg/kg) was 4382.8 ng/mL and 725.2 ng/mL and 1796.5 ng/mL. For the same molecule, the Mean plasma concentration ([1]; BT070 10 mg/kg orally, rat, 1 h, mean) was 2.3015 µg/mL, the plasma concentration ([1]; BT070 10 mg/kg orally, rat, 2 h, individual animals, 10 mg/kg) was 2238.3 ng/mL and 1114.4 ng/mL and 1215.5 ng/mL and the Mean plasma concentration ([1]; BT070 10 mg/kg orally, rat, 2 h, mean) was 1.5228 µg/mL. The plasma concentration ([1]; BT070 10 mg/kg orally, rat, 4 h, individual animals, 10 mg/kg) was 1178.8 ng/mL and 861.5 ng/mL and 448.5 ng/mL, the Mean plasma concentration ([1]; BT070 10 mg/kg orally, rat, 4 h, mean) was 0.8296 µg/mL and the plasma concentration ([1]; BT070 10 mg/kg orally, rat, 6 h, individual animals, 10 mg/kg) was 641.5 ng/mL and 543.6 ng/mL and 280.0 ng/mL. For the same molecule, the Mean plasma concentration ([1]; BT070 10 mg/kg orally, rat, 6 h, mean) was 0.4883 µg/mL, the plasma concentration ([1]; BT070 10 mg/kg orally, rat, 8 h, individual animals, 10 mg/kg) was 312.1 ng/mL and 451.6 ng/mL and 118.1 ng/mL and the Mean plasma concentration ([1]; BT070 10 mg/kg orally, rat, 8 h, mean) was 0.2939 µg/mL. For the same molecule, the plasma concentration ([1]; BT070 10 mg/kg orally, rat, 24 h, individual animals, 10 mg/kg) was 12.0 ng/mL and 268.9 ng/mL and 22.8 ng/mL, the Mean plasma concentration ([1]; BT070 10 mg/kg orally, rat, 24 h, mean) was 0.1012 µg/mL and the “% Extrapolation” value [1, 4] was 0.3% and 38.42% and 2.46%. For the same molecule, the AUCinf [1, 4] was 17616.8 ng/mL*h and 19158.4* ng/mL*h and 7432.0 ng/mL*h, the AUClast [1, 4] was 17.5609 µg·h/mL and 11.7983 µg·h/mL and 7.2495 µg·h/mL and the CL_F [1, 4] was 9.5 mL/min/kg and 8.7* mL/min/kg and 22.43 mL/min/kg. The Cmax [1, 4] was 7.4728 µg/mL and 1.1144 µg/mL and 2.5463 µg/mL, the tmax [1, 4] was 0.50 h (2×) and 2.00 h and the “% Extrapolation, Mean” value [1, 5] was 13.7%. For the same molecule, the “AUCinf, Mean” value [1, 5] was 14.7357 µg·h/mL, the “AUClast, Mean” value [1, 5] was 12.2029 µg·h/mL and the “CL_F, Mean” value [1, 5] was 0.81 L/h/kg. The “Cmax, Mean” value [1, 5] was 3.7112 µg/mL, the “M.R.T. po, Mean” value [1, 5] was 10.8 h and the “tmax, Mean” value [1, 5] was 1.0 h. The plasma concentration ([1]; BT070 as breakdown product after BT051 10 mg/kg orally, rat, 0.5 h, individual animals) was 3.3 ng/mL and NQ (Not quantifiable. No peak or below limit of quantification (LOQ = 2.5 ng/mL)) (4×), the Mean plasma concentration ([1]; BT070 as breakdown product after BT051 10 mg/kg orally, rat, 0.5 h, mean) was 0.0033 µg/mL and the plasma concentration ([1]; BT070 as breakdown product after BT051 10 mg/kg orally, rat, 1 h, individual animals) was “NQ (Not quantifiable. No peak or below limit of quantification (LOQ = 2.5 ng/mL))”. The plasma concentration ([1]; BT070 as breakdown product after BT051 10 mg/kg orally, rat, 2 h, individual animals) was “NQ (Not quantifiable. No peak or below limit of quantification (LOQ = 2.5 ng/mL))”, the plasma concentration ([1]; BT070 as breakdown product after BT051 10 mg/kg orally, rat, 4 h, individual animals) was “NQ (Not quantifiable. No peak or below limit of quantification (LOQ = 2.5 ng/mL))” and the plasma concentration ([1]; BT070 as breakdown product after BT051 10 mg/kg orally, rat, 6 h, individual animals) was “NQ (Not quantifiable. No peak or below limit of quantification (LOQ = 2.5 ng/mL))”. For the same molecule, the plasma concentration ([1]; BT070 as breakdown product after BT051 10 mg/kg orally, rat, 8 h, individual animals) was “NQ (Not quantifiable. No peak or below limit of quantification (LOQ = 2.5 ng/mL))”, the plasma concentration ([1]; BT070 as breakdown product after BT051 10 mg/kg orally, rat, 24 h, individual animals) was “NQ (Not quantifiable. No peak or below limit of quantification (LOQ = 2.5 ng/mL))” and the Cmax ([1]; BT070 as breakdown product after BT051 10 mg/kg orally, rat, individual animals) was 0.0033 µg/mL. The “Cmax, Mean” value ([1]; BT070 as breakdown product after BT051 10 mg/kg orally, rat, mean) was 0.0033 µg/mL, the “oral bioavailability of the breakdown product” value ([1]; BT070 following oral administration of BT051 in rats at 10 mg/kg, result in words) was “not orally bioavailable” and the detectability in plasma ([1]; rats, 10 mg/kg orally, result in words) was “present in the plasma in all subject rats from 15 minutes to 24 hours”. The “dose-response of inhibition of neutrophil migration” value (human neutrophils; FIG. 1, result in words) was “dose-responsive inhibition”, the “inhibition of neutrophil migration” value (human neutrophils; dose of 100 nM, result in words) was “exhibit inhibition” and the Amount in feces ([2]; BT070 10 mg/kg orally, 0-4 h) was 561.4 ng. For the same molecule, the “% of dose excreted unchanged in feces” value [2, 6] was 44.6% and 9.0% and 72.2%, the “Total amount excreted unchanged in feces” value [2, 6] was 1212482.2 ng and 252675.5 ng and 1891835.1 ng and the Amount in feces ([2]; BT070 10 mg/kg orally, 4-8 h, 10 mg/kg) was 181805.0 ng and 875239.4 ng. For the same molecule, the Amount in feces ([2]; BT070 10 mg/kg orally, 8-24 h, 10 mg/kg) was 1030677.2 ng and 252114.1 ng and 1016595.6 ng, the “Total amount excreted in feces” value ([2]; BT070 as breakdown product after BT051 10 mg/kg orally, 0-48 h) was 36.9 µg and 33.4 µg and 41.4 µg and 38.5 µg and the Amount in feces ([2]; BT070 as breakdown product after BT051 10 mg/kg orally, 8-24 h) was 31200 ng and 14300 ng and 10600 ng and 34800 ng. For the same molecule, the Amount in feces ([2]; BT070 as breakdown product after BT051 10 mg/kg orally, 24-48 h) was 5700 ng and 19100 ng and 30800 ng and 3700 ng, the “stability in fresh rat fecal homogenate” value [3] was “stable” and the “stability in simulated gastric fluid (SGF)” value (SGF FeSSIF stability) was “stable”. The “stability in simulated intestinal fluid (FeSSIF)” value (SGF FeSSIF stability) was “stable”.
